Data reported in patent US8461297B2, “Cytoplasmic malate dehydrogenase (MDH1) targeted treatment for neurodegenerative diseases” (Ramot at Tel-Aviv University, Ltd., priority 2007, dated 2013).
Ends that are not written are not given here. 5,6‑TAMRA = 5,6-carboxytetramethylrhodamine fluorescent label at the N-terminus

Experiments:
Assay type in all cases: cell-based
[1] = system: G93A-hSOD1-GFP-expressing NSC-34 cells; assay: Cell survival (methylene blue assay) under rotenone or low-glucose challenge, G93A-hSOD1-GFP cells
Protocol: (§1) The functional significance of the loss of such interaction was assessed by alleviation of the rotenone (a mitochondrial inhibitor) or low-glucose challenge in NSC-34 clones expressing an inducible form of the mutant G93A SOD1-GFP as monitored by cell survival. The […] (SEQ ID NO: 1) peptide was synthesized (SBS Gentech Beijing) with 5,6-TAMRA modification (to allow detection) at the N-terminus. The TAMRA-modified peptide was dissolved in 10% acetic acid and added to cell culture medium in culture medium containing 1% ethanol. Thus, 15,000 cells (WT-hSOD1 or G93A-hSOD1) seeded in each well of a 96-well plate in DMEM, 10% serum. 24 hours later, cells were incubated with 1*10^-6M cytMDH peptide (or acetic acid/ethanol vehicle) for 4 h without serum. 1-10 micromole/L Rotenone in DMEM, 10% serum was then added for 24 hours, or medium replaced with low glucose (1 mg/ml) in DMEM with 5% serum for 72 hours. Cell survival was then assessed. It was expected that if the identified peptide interaction is resolving the gain of toxic interaction of G93A SOD1-GFP, then survival of the cells upon rotenone- or low-glucose challenge will improve.
(§2) 15,000 cells (WT-hSOD1 or G93A-hSOD1) were seeded in each well of a 96 well-plate in DMEM, 10% serum. 24 hours later, the cells were incubated with 3 mM octanoic acid with and without 1-10 micromole/L rotenone in DMEM, 10% serum for 24 hours. Or, cells were incubated with 3 mM octanoic acid and medium replaced with regular ([…]) or low (1 mg/ml) glucose in DMEM with 5% serum for 72 hours. Cell survival was then assessed. It was expected that if the gain of toxic interaction of G93A SOD1-GFP is due to inhibition of the malate-aspartate shuttle, octanoic acid will provide an alternative energy source through the alternative shunt and the survival of the cells upon rotenone or low-glucose challenge will improve.
(§3) Cell survival was assessed by the methylene blue assay. Cells were fixed with 4% formaldehyde solution for 1 h, then washed with 0.1M sodium borate buffer pH8.5, stained with 1% methylene blue for 20 min and washed with water. Cell-bound dye was eluted with 200 μl of 0.1M HCl. The optical density was assessed at 595 nm in ELISA plate reader.
(§4) The […] (SEQ ID NO: 1) peptide was synthesized (SBS Gentech Beijing) with 5,6-TAMRA modification (to allow detection) at the N-terminus, dissolved in 10% acetic acid, and diluted in cell culture medium containing 1% ethanol. Thus, 15,000 cells (WT-hSOD1 or G93A-hSOD1) seeded in each well of 96 wells plate in DMEM, 10% serum and doxycline (to induce expression of the hSOD1 proteins). 24 hours later, medium was replaced with serum free DMEM, and cells were incubated with 1 micromol/liter of the TAMRA-labeled […] peptide or vehicle (1% acetic acid/ethanol) for 4 hours. […] Cell survival was then assessed.

[2] = system: WT-hSOD1-GFP-expressing NSC-34 cells; assay: Cell survival (methylene blue assay) under rotenone or low-glucose challenge, WT-hSOD1-GFP cells
Protocol: as §1, §2, §3, §4

[3] = molecular target: T1, G93A-hSOD1/cytMDH complex (Homo sapiens, UniProt P00441, G94A); assay: FACS-based FRET test of peptides competing for the G93A-hSOD1-CFP/cytMDH-YFP interaction in co-transfected NSC-34 cells; conditions: myc-tagged peptide expression plasmid co-transfected at 1:1:1 ratio, excitation 405 nm, emission 530 nm
T1 construct: expressed in transfected cells; host or cells: NSC-34 cells (transient co-transfection)
Excerpt: The screening method was based on the fluorescence resonance energy transfer (FRET) system between cyan fluorescence protein (CFP) chimera proteins and yellow fluorescence protein (YFP) chimera proteins. The present inventors designed and used this system to identify the specific interaction of G93A SOD1 with MDH1 so as to identify a motif within MDH1 that is critical for the G93A SOD1-MDH1 interaction. The agents tested were peptides derived from MDH1.
A Myc-tagged peptide library expressing small fragments of the MDH1 was prepared. MDH1 cDNA was digested with AluI or/and DpnI and the fragments were cloned so that each peptide was placed in the correct reading frame of the original protein and in frame to the human myc tag sequence. G93A SOD1-CFP and MDH1-YFP expression plasmids were transfected into NSC-34 cells with and without the myc-tagged library.
The hypothesis is that the specific MDH1-derived peptides comprising the interacting motif will compete with MDH1 for the G93A SOD1-MDH1 interaction site. In such case, the CFP and YFP fluorescence of the G93A SOD1-CFP and MDH1-YFP will still be present, but the FRET signal will be diminished. The screening studies were performed using a cell sorter (FACS) with 405 nm excitation laser and a 530/30 nm emission filter. […] RNA was extracted from the sorted cells, converted into cDNA and subjected to PCR amplification in order to amplify the peptides DNA sequences.
The DNA sequence from the sorted cells was re-cloned. Four clones were obtained, one corresponding to amino acids 14-27 of the cytMDH protein GQIAHSLLYSIGNG (SEQ ID NO: 2) and three corresponding to amino acids 217-239 of the cytMDH protein […] (SEQ ID NO: 1). The identified clones were re-analyzed in the FACS-based system to verify their ability to compete for the G93A SOD1-MDH1 interaction at 1:1:1 ratio levels. Thus, 5*10^6 NSC-34 cells were transfected with equal amounts of G93A-hSOD1-CFP and cytMDH-YFP and the suspected myc-tagged cytMDH peptide-expressing plasmids.
Ability of the 217-239 peptide to disrupt the G93A-hSOD1-cytMDH1 complex was tested by co-transfection into NSC-34 cells of constructs encoding myc-tagged 217-239 and the FRET-enabled G93A-hSOD1/cytMDH proteins, followed by FACS analysis to measure FRET.

T1 sequence (P00441 2-154 G94A limits assumed, one chain of several): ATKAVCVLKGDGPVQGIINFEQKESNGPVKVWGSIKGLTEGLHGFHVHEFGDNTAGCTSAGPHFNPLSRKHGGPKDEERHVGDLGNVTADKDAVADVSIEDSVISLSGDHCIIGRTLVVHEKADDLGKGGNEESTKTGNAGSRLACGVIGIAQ

| Compound | effects of low glucose on cell viability in the presence of octanoic acid ([1]; 3 mM octanoic acid, low (1 mg/ml) glucose DMEM, 5% serum, 72 h, G93A-hSOD1-GFP cells) | effects of rotenone on cell viability in the presence of octanoic acid ([1]; 3 mM octanoic acid, rotenone 1.25 micromol/liter for 24 h, G93A-hSOD1-GFP cells) | effects of low glucose on cell viability in the presence of octanoic acid ([2]; 3 mM octanoic acid, low (1 mg/ml) glucose DMEM, 5% serum, 72 h, WT-hSOD1-GFP cells) | effects of rotenone on cell viability in the presence of octanoic acid ([2]; 3 mM octanoic acid, rotenone 1.25 micromol/liter for 24 h, WT-hSOD1-GFP cells) | FRET signal of G93A-hSOD1-CFP/cytMDH-YFP (disruption of the complex) [3] | FRET signal of G93A-hSOD1-CFP/cytMDH-YFP (disruption of the complex) ([3]; listed as peptide 14-27) | effects of rotenone on cell viability in the presence of peptide ([1]; 1 micromol/liter TAMRA-labeled peptide 4 h, then 0.5 micromol/L rotenone 24 h, G93A-hSOD1-GFP cells) | effects of low glucose on cell viability in the presence of peptide ([1]; 1 micromol/liter TAMRA-labeled peptide, low glucose (1 mg/ml) DMEM, 5% serum, 72 h, G93A-hSOD1 cells) | effects of rotenone on cell viability in the presence of peptide ([2]; 1 micromol/liter TAMRA-labeled peptide 4 h, then 0.5 micromol/L rotenone 24 h, WT-hSOD1-GFP cells) | effects of low glucose on cell viability in the presence of peptide ([2]; 1 micromol/liter TAMRA-labeled peptide, low glucose (1 mg/ml) DMEM, 5% serum, 72 h, WT-hSOD1 cells) | FRET signal of G93A-hSOD1-CFP/cytMDH-YFP (disruption of the complex) ([3]; listed as SEQ ID NO: 1) | FRET signal of G93A-hSOD1-CFP/cytMDH-YFP (disruption of the complex) ([3]; listed as peptide 217-239) |
| --- | --- | --- | --- | --- | --- | --- | --- | --- | --- | --- | --- | --- |
| CCCCCCCC(=O)O [octanoic acid, reference compound] | greatly diminished | greatly diminished | not | not |  |  |  |  |  |  |  |  |
| GQIAHSLLYSIGNG (listed as Mus musculus) [14-27 peptide] |  |  |  |  | found not to inhibit the interaction | positive FRET |  |  |  |  |  |  |
| SWLKGEFITTVQQRGAAVIKARK ({5,6‑TAMRA}-SWLKGEFITTVQQRGAAVIKARK; listed as Mus musculus) [217-239 peptide, amino acids 217-239 of the cytMDH protein] |  |  |  |  | blocked FRET |  | greatly diminished | significantly diminished | not | not | prevented the FRET | negative FRET |
